Measured values reported in article PMC8820820, “Feasibility and safety of targeting mitochondria for cancer therapy – preclinical characterization of gamitrinib, a first-in-class, mitochondriaL-targeted small molecule Hsp90 inhibitor” (Cancer Biology & Therapy, 2022).
“And” between values parts separate entries of the source, which are not always exact repeats. Equal values may be shown once. “Also recorded” adds a separate entry of the source.

Assays:
Kv4.3/KChIP2 = molecular target: T1, Kv4.3/KChIP2 (Homo sapiens, UniProt Q9UK17); assay: Ion channel screening; assay type: cell-based; conditions: 10 µM
T1 sequence (Q9UK17 1-655): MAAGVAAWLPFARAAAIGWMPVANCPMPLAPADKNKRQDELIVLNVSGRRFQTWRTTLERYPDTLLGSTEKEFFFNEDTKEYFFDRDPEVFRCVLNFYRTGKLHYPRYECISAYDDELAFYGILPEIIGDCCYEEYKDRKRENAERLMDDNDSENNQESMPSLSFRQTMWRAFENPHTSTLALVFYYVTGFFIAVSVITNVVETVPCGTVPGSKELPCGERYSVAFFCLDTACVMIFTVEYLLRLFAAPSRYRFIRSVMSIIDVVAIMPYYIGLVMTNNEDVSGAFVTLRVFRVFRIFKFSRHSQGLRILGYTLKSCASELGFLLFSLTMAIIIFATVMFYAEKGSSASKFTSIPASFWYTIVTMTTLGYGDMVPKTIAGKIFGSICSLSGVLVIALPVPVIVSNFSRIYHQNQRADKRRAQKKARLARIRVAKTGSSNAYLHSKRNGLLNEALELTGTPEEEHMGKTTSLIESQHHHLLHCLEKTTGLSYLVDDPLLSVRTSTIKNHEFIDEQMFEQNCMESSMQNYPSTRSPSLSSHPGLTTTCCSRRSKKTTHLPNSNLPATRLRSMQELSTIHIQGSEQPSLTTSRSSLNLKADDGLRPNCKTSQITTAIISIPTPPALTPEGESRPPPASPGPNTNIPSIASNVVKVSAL
T1 sequence (Q9NS61 1-270 partner): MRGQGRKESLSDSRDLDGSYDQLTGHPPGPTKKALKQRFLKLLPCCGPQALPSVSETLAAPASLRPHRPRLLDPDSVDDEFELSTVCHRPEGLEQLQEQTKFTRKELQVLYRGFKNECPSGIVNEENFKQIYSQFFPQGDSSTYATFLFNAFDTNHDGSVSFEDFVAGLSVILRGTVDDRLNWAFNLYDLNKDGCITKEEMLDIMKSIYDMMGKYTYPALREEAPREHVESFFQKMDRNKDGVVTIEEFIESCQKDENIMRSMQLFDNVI
From the text: Ion channel screening. […] The parameters measured were the maximum inward current evoked on stepping to -20 mV from the 1st and 26th pulse. Human Kv4.3/KChIP2 currents were evoked from a holding potential of -80 mV by a series of four 500 msec pulses to 0 mV using a 1000 msec interval between pulses. The parameter measured was the amplitude of the outward current 50 msec after the onset of the 4th voltage step to 0 mV. […] Human Kv1.5 currents were evoked by a single pulse from a holding potential of -80 mV to a potential of 0 mV for 4 sec before returning to -80 mV. The parameters measured were the maximum amplitude of outward currents evoked at the beginning of the voltage pulse and at the end of the voltage step from -80 mV to 0 mV. Human KCNQ1/minK currents were evoked by a single pulse delivered from a holding potential of -80 mV to +60 mV for 4 sec before returning to -80 mV. The parameter measured was the maximum outward current evoked on stepping to +60 mV from the holding potential of -80 mV. hERG currents were evoked by a three-pulse protocol where voltage was first stepped to +40 mV for two sec from a holding potential of –80 mV to inactivate hERG channels. […] The parameter measured was the maximum inward current evoked upon stepping to -110 mV from the holding potential of -30 mV. […]

CYP2A6 = molecular target: T2, CYP2A6 (Homo sapiens, UniProt P11509); conditions: microsomes
T2 sequence (P11509 1-494): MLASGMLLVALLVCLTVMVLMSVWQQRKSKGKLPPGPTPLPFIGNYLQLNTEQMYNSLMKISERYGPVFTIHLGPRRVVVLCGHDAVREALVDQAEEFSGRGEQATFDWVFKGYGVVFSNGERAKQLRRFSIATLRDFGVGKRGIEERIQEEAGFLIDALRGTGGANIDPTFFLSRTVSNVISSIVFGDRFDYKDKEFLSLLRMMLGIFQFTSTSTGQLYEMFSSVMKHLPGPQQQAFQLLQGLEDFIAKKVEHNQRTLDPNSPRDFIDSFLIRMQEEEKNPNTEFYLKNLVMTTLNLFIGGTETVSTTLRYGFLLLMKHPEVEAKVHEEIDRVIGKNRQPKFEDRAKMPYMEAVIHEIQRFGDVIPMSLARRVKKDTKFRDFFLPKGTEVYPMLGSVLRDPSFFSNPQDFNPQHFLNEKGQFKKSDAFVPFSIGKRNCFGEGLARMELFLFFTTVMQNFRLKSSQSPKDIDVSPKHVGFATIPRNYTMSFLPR
Method: CYP inhibition in liver microsomes. […] Samples were analyzed for metabolite formation by LC-MS/MS. The results were expressed using the peak area ratio of analyte to internal standard, based on the calibration curves.
Where Range=fitted uninhibited value, s=slope factor, x=inhibitor concentration, y=% control activity.

[1] = Gamitrinib pharmacokinetics in rat plasma, single IV dose; assay type: in vivo, Sprague-Dawley rats
Method: Sprague-Dawley rats (n = 3) were administered with a single intravenous (IV) dose of 1 mL Gamitrinib (5 mg/kg) formulated as described above without added microfluidization. Blood samples were collected via lateral tail vein using K2EDTA as an anticoagulant at 0.083, 0.25, 0.5, 1, 2, 4, and 24 h post-dose, chilled on ice, and centrifuged at 5000 rpm for 10 min. Aliquots (0.2 mL) of each plasma sample were stored frozen at −20°C. For analysis, 50 µL aliquots of the study samples were mixed with 50 µL of ACN/H2O (50:50), extracted by protein precipitation using ACN containing the internal standard Gamitrinib-d15 (100 ng/mL), and the aliquots of the supernatant were mixed with deionized water for Gamitrinib determination. Batch samples under analysis included a calibration curve, a matrix blank (blank rat plasma), a reagent blank, a control zero (blank rat plasma spiked with internal standard), and duplicate QC samples at three concentration levels (low, medium, and high) in addition to the study samples. Within each batch, the study samples were bracketed by calibration standards or QC samples. The lowest calibration standard served to evaluate system suitability at the beginning of each batch. […] Overall, the concentration of Gamitrinib was measured in 21 rat plasma samples in 1 analytical batch using LC-MS/MS data acquisition on a Shimadzu Nexera LC system coupled with an AB Sciex Triple Quad 5500 mass spectrometer. Chromatograms were integrated using Analyst 1.6.2 software. A weighted (1/x^2, x = concentration) linear regression was used to generate the calibration curve for Gamitrinib. […] The mean, standard deviation, precision, accuracy, and assay variability were calculated using Microsoft Excel.

Structure (SMILES): COC1C=CC=C(C)C(=O)NC2=CC(=O)C(NCCCCCC[P+](c3ccccc3)(c3ccccc3)c3ccccc3)=C(CC(C)CC(OC)C(O)C(C)C=C(C)C1OC(N)=O)C2=O.F[P-](F)(F)(F)(F)F (stereo not shown) [Gamitrinib]
- inhibition of Kv4.3/KChIP2 currents (Kv4.3/KChIP2): 6.8 ± 2.2%
- IC50 (CYP2A6): 24 µM
- AUCINF ([1]; 5 mg/kg IV, Mean (n = 3)): 976.002 ng·h/mL
- AUClast (AUC0-t) ([1]; 5 mg/kg IV, Mean (n = 3)): 783.1 ± 71.3 ng·h/mL and 783.199 ng·h/mL
- CL ([1]; 5 mg/kg IV, Mean (n = 3)): 85.6 ± 5.8 mL/min/kg and 85.65 ± 5.85 mL/min/kg and 85.656 mL/min/kg
- MRT ([1]; 5 mg/kg IV, Mean (n = 3)): 5.492 h
- Vss ([1]; 5 mg/kg IV, Mean (n = 3)): 65.471 L/kg
- Vz ([1]; 5 mg/kg IV, Mean (n = 3)): 91.159 L/kg
- t1/2 ([1]; 5 mg/kg IV, Mean (n = 3)): 12.2 ± 1.55 h and 12.250 h
- AUCINF ([1]; 5 mg/kg IV, Rat 1): 1051.752 ng·h/mL
- AUClast ([1]; 5 mg/kg IV, Rat 1): 851.441 ng·h/mL
- CL ([1]; 5 mg/kg IV, Rat 1): 79.233 mL/min/kg
- Cmax ([1]; 5 mg/kg IV, Rat 1): 1153.712 ng/mL
- MRT ([1]; 5 mg/kg IV, Rat 1): 5.539 h
- Vss ([1]; 5 mg/kg IV, Rat 1): 58.230 L/kg
- Vz ([1]; 5 mg/kg IV, Rat 1): 79.715 L/kg
- t1/2 ([1]; 5 mg/kg IV, Rat 1): 11.623 h
- AUCINF ([1]; 5 mg/kg IV, Rat 2): 957.472 ng·h/mL
- AUClast ([1]; 5 mg/kg IV, Rat 2): 789.045 ng·h/mL
- CL ([1]; 5 mg/kg IV, Rat 2): 87.035 mL/min/kg
- Cmax ([1]; 5 mg/kg IV, Rat 2): 829.668 ng/mL
- MRT ([1]; 5 mg/kg IV, Rat 2): 5.411 h
- Vss ([1]; 5 mg/kg IV, Rat 2): 60.052 L/kg
- Vz ([1]; 5 mg/kg IV, Rat 2): 83.678 L/kg
- t1/2 ([1]; 5 mg/kg IV, Rat 2): 11.107 h
- AUCINF ([1]; 5 mg/kg IV, Rat 3): 918.784 ng·h/mL
- AUClast ([1]; 5 mg/kg IV, Rat 3): 709.112 ng·h/mL
- CL ([1]; 5 mg/kg IV, Rat 3): 90.700 mL/min/kg
- Cmax ([1]; 5 mg/kg IV, Rat 3): 1544.041 ng/mL
- MRT ([1]; 5 mg/kg IV, Rat 3): 5.524 h
- Vss ([1]; 5 mg/kg IV, Rat 3): 78.131 L/kg
- Vz ([1]; 5 mg/kg IV, Rat 3): 110.085 L/kg
- t1/2 ([1]; 5 mg/kg IV, Rat 3): 14.022 h
- Gamitrinib plasma concentration ([1]; 5 mg/kg IV, animal 1, 5 min): 622.199 ng/mL
- Gamitrinib plasma concentration ([1]; 5 mg/kg IV, animal 1, 15 min): 180.951 ng/mL
- Gamitrinib plasma concentration ([1]; 5 mg/kg IV, animal 1, 30 min): 106.381 ng/mL
- Gamitrinib plasma concentration ([1]; 5 mg/kg IV, animal 1, 60 min): 71.445 ng/mL
- Gamitrinib plasma concentration ([1]; 5 mg/kg IV, animal 1, 120 min): 46.657 ng/mL
- Gamitrinib plasma concentration ([1]; 5 mg/kg IV, animal 1, 240 min): 36.816 ng/mL
- Gamitrinib plasma concentration ([1]; 5 mg/kg IV, animal 1, 1440 min): 11.946 ng/mL
- Gamitrinib plasma concentration ([1]; 5 mg/kg IV, animal 2, 5 min): 526.229 ng/mL
- Gamitrinib plasma concentration ([1]; 5 mg/kg IV, animal 2, 15 min): 211.686 ng/mL
- Gamitrinib plasma concentration ([1]; 5 mg/kg IV, animal 2, 30 min): 114.230 ng/mL
- Gamitrinib plasma concentration ([1]; 5 mg/kg IV, animal 2, 60 min): 65.903 ng/mL
- Gamitrinib plasma concentration ([1]; 5 mg/kg IV, animal 2, 120 min): 43.125 ng/mL
- Gamitrinib plasma concentration ([1]; 5 mg/kg IV, animal 2, 240 min): 34.776 ng/mL
- Gamitrinib plasma concentration ([1]; 5 mg/kg IV, animal 2, 1440 min): 10.511 ng/mL
- Gamitrinib plasma concentration ([1]; 5 mg/kg IV, animal 3, 5 min): 674.432 ng/mL
- Gamitrinib plasma concentration ([1]; 5 mg/kg IV, animal 3, 15 min): 128.663 ng/mL
- Gamitrinib plasma concentration ([1]; 5 mg/kg IV, animal 3, 30 min): 67.204 ng/mL
- Gamitrinib plasma concentration ([1]; 5 mg/kg IV, animal 3, 60 min): 55.991 ng/mL
- Gamitrinib plasma concentration ([1]; 5 mg/kg IV, animal 3, 120 min): 29.914 ng/mL
- Gamitrinib plasma concentration ([1]; 5 mg/kg IV, animal 3, 240 min): 28.905 ng/mL
- Gamitrinib plasma concentration ([1]; 5 mg/kg IV, animal 3, 1440 min): 10.365 ng/mL
- generation of metabolite 17-AG ([1]; rats, IV Gamitrinib 5 mg/kg, plasma): without generation of 17-AG; also recorded: did not generate detectable levels; also recorded: no generation of 17-AG
